From patent US20090092642A1, “Skin and/or Hair Products, Containing Compounds With an Isoprenoid Structure” (BEIERSDORF AG, priority 2004, published 2009)

Tested on: primary normal human melanocytes
Assay: Melanogenesis assay (14C-tyrosine incorporation) after 3 days of incubation with test substance
Format: cell-based
Conditions: 3 days incubation
Protocol: (§1) A melanogenesis assay was carried out after 3 days of incubation of primary normal human melanocytes with test substance compared to control. The figures listed in the table give the melanogenesis rates (measured as ^14C-tyrosine incorporation) based on the untreated control (=100%). It results from this that the melanogenesis, i.e., the process of melanine synthesis rises to 217%, 128% or 121%, when the melanocytes are cultivated in the presence of the (2E/Z,6E/Z)-3,7,11-trimethyldodeca-2,6,10-trienal (n=3).
as §1, with “135%” for “217%, 128%”, “113%” for “121%,”, “N-[(1E/Z,2E/Z)-3,7-dimethylocta-2,6-dien-1-ylidene]butane-1-amine (n=2).” for “(2E/Z,6E/Z)-3,7,11-trimethyldodeca-2,6,10-trienal (n=3).”
as §1, with “137%” for “217%, 128%”, “127%” for “121%,”, “(2E/Z)-3,7-dimethylocta-2,6-dienal (n=2-6).” for “(2E/Z,6E/Z)-3,7,11-trimethyldodeca-2,6,10-trienal (n=3).”
as §1, with “131%, 130%” for “217%, 128%”, “117%” for “121%,”, “(1E/Z,2E/Z)-3,7-dimethylocta-2,6-dienal oxime (n=2).” for “(2E/Z,6E/Z)-3,7,11-trimethyldodeca-2,6,10-trienal (n=3).”

With CC(C)=CCC/C(C)=C/C=N/O [(1E/Z,2E/Z)-3,7-dimethylocta-2,6-dienal oxime] the “melanogenesis rate (measured as 14C-tyrosine incorporation) based on the untreated control (=100%), X transverse” value (shortened to “melanogenesis rate … (=100%), X transverse”) (0.01 μg/ml, n=2) was 117%, the “melanogenesis rate … (=100%), X transverse” value (0.1 μg/ml, n=2) was 130% and the “melanogenesis rate … (=100%), X transverse” value (1 μg/ml, n=2) was 131%.
For CC(C)=CCC/C(C)=C/CC/C(C)=C/C=O [(2E/Z,6E/Z)-3,7,11-trimethyldodeca-2,6,10-trienal], the “melanogenesis rate … (=100%), X transverse” value (0.1 μg/ml (first column so headed), n=3) was 128%, the “melanogenesis rate … (=100%), X transverse” value (0.1 μg/ml (second column so headed), n=3) was 121% and the “melanogenesis rate … (=100%), X transverse” value (1 μg/ml, n=3) was 217%.
CCCC/N=C/C=C(\C)CCC=C(C)C [N-[(1E/Z,2E/Z)-3,7-dimethylocta-2,6-dien-1-ylidene]butane-1-amine] was tested, and the “melanogenesis rate … (=100%), X transverse” value (0.1 μg/ml, n=2) was 113% and the “melanogenesis rate … (=100%), X transverse” value (1 μg/ml, n=2) was 135%.
CC(C)=CCC/C(C)=C/C=O [(2E/Z)-3,7-dimethylocta-2,6-dienal] was tested, and the “melanogenesis rate … (=100%), X transverse” value (0.001 μg/ml, n=2-6) was 127% and the “melanogenesis rate … (=100%), X transverse” value (0.01 μg/ml, n=2-6) was 137%.
